Literature values, collected in patent publication US8133908B2, “Heteroaryl derivatives of N-{[(1S,4S,6S)-3-(2-pyridinylcarbonyl)-3-azabicyclo[4.1.0]hept-4-yl]methyl}-2-amine” (Glaxo Group Limited, priority 2008, dated 2012).
No end group written: not given here.

Assays:
orexin receptor = settings: rats
orexin-A receptor(s) = settings: central administration, freely-feeding rats, 4 hour time period
orexin receptors = settings: rats, central administration at the onset of the normal sleep period

Row | Molecule | hedonic eating (orexin receptor) | high-fat pellet self-administration (orexin receptor) | increase of food intake over control rats receiving vehicle (orexin-A receptor(s)) | arousal (orexin receptors)
1 | Cc1nc2ccc(NC(=O)Nc3ccnc4cccnc34)cc2o1 [SB334867] | potently reduced | attenuated | – | –
2 | orexin-A: ligand for the orexin-1 receptor; an agonist of the orexin receptors (QPLPDCCRQKTCSCRLYELLHGAGNHAAGILTL; ends and bridges not checked; cysteine pairing not given here; UniProt O43612 34-66, looked up) | – | – | approximately four-fold | dose-related increase in arousal
